What was measured:
[1] = tested on: KYSE-410 (HN/Esophagus) cell lines; test: Cell proliferation assay and synergy analysis, Compound I with Adagrasib; settings: Homo sapiens, KYSE-410, 72 h, read-out: Ave inhibition (%)
Source text: (§4) The cell lines tested included: UM-UC-3 (bladder), KYSE-410 (HN/Esophagus), SW1463 (rectum), Calu-1 (Lung), NCI-H358 (Lung), SW837 (Rectum), SW756 (Cervix), NCI-H2122 (Lung), NCI-H1373 (Lung), NCI-H1792 (Lung), NCI-H23 (Lung), MIA PaCa-2 (Pancreas), and HCC44 (Lung).
(§5) Cells were recovered and maintained in appropriate culture media. The cells were harvested respectively during the logarithmic growth period. The cells were then resuspended and counted using a Vi cell counter (The cell viability was measured by trypan blue exclusion assay). The cells were then diluted and 80 μL of the cell suspensions were added to 96-well plates according to plate map with final cell density. Two duplicate plates were set up. One is for day 0 reading (T0) and the other was cultured in the incubator for reading at the end point. The incubated plates were incubated overnight in humidified incubator at 37° C. with 5% CO2.
(§6) At day 0, 20 μL of culture medium was added to each well for T0 reading. 10 μL of culture medium was added to each well for day 0 (T0) reading. Then, 50 μl of CellTiter-Glo® Reagent was added to each well. The contents were then mixed for 2 minutes on an orbital shaker to facilitate cell lysis. The plates were then allowed to incubate at room temperature for 10 minutes to stabilize luminescent signal. Luminescence was then recorded using an EnVision Multi Label Reader. […] The screening plates were then placed back into the incubator for the appropriate treatment time (3 days).
(§7) For the endpoint CTG reading, 50 μL of CellTiter-Glo® Reagent was added to each well. The contents were then mixed for 2 minutes on an orbital shaker to facilitate cell lysis. The plate was allowed to incubate at room temperature for 10 minutes to stabilize luminescent signal. Luminescence was then recorded using an EnVision Multi Label Reader. The surviving rate (%)=(LumTest article−LumMedium control)/(LumNone treated−LumMedium control)×100%.
(§8) A score higher than 5 indicates synergy, and a score less than −5 indicates antagonism.

[2] = tested on: SW837 (Rectum) cell lines; test: as above; settings: Homo sapiens, SW837, 72 h, read-out: Ave of Inhibition (%)
Source text: as §4, §5, §6, §7, §8

[3] = tested on: MIA PaCa-2 (Pancreas); test: Cell proliferation assay (CellTiter-Glo, 3 days), single agent; assay type: cell-based; settings: Homo sapiens
Protocol: (§1) Two duplicate plates were set up.
(§2) At day 0, 10 μL culture medium to each well for T0 reading. […] Compound I was diluted and 10 μL of each 10× compound I from working solutions for a concentration ranging from 10 μM to about 0.005 μM. Cisplatin was diluted to about 3.33 mM to about 150 nM.
(§3) IC50's were determined for each cell line.

[4] = tested on: NCI-H358 (Lung); test: as above; assay type: cell-based; settings: 3 days treatment
Protocol: as §1, §2, §3

[5] = molecular target: T1, PI3K (Homo sapiens, UniProt P42336); test: NanoBRET screening (binding assay) in transfected HEK293 cells; settings: overnight incubation, washout
T1 construct: expressed in transfected cells; host or cells: HEK293 (Gibco 293-H), transient transfection with FuGENE HD
Protocol: Human embryonic kidney 293-H (HEK 293, Gibco 293-H, #11631017) cell lines were maintained in Dulbecco's Modified Eagle Medium, high glucose, pyruvate (DMEM, Gibco, #11995065) supplemented with 10% fetal bovine serum (FBS, Gibco, #10082147) and 1× penicillin-streptomycin (100× solution, Gibco, #15140148) at 37° C. and 5% CO2 in a water-saturated incubator. […] Opti-MEM media supplemented with 10% fetal bovine serum (Opti-MEM I reduced serum media, no phenol red, Gibco, #11058021) was used for culturing cells overnight for NanoBRET readout experiments.
HEK293 cells were cultivated appropriately prior to assay. The medium from cell flask was removed via aspiration, washed 1× with PBS followed by aspiration, trypsinized, and cells were allowed to dissociate from the flask. Trypsin was neutralized using growth medium and cells were pelleted via centrifugation at 200×g for 5 minutes. The medium was aspirated and the cells were resuspended into a single cell suspension using Opti-MEM I supplemented with 10% FBS. The cell density was adjusted to 2×10^5/mL in Opti-MEM I supplemented with 10% FBS in a sterile, conical tube. […]
A 10 μg/mL solution of DNA was prepared in Opti-MEM without serum. […] The plate on plate reader is read every hour for the next 6 hours.

[6] = tested on: SW1463 (rectum) cell lines; test: Cell proliferation assay and synergy analysis, Compound I with Adagrasib; settings: Homo sapiens, SW1463, 72 h, read-out: Ave Inhibition (%)
Source text: as §4, §5, §6, §7, §8

[7] = tested on: UM-UC-3 (bladder) cell lines; test: as above; settings: Homo sapiens, UMUC3, 72 h, read-out: Ave Inhibition rate (%)
Source text: as §4, §5, §6, §7, §8

[8] = MIA PaCa-2, read-out: Average Inhibition (%) (N = 3)

T1 sequence (P42336 whole entry): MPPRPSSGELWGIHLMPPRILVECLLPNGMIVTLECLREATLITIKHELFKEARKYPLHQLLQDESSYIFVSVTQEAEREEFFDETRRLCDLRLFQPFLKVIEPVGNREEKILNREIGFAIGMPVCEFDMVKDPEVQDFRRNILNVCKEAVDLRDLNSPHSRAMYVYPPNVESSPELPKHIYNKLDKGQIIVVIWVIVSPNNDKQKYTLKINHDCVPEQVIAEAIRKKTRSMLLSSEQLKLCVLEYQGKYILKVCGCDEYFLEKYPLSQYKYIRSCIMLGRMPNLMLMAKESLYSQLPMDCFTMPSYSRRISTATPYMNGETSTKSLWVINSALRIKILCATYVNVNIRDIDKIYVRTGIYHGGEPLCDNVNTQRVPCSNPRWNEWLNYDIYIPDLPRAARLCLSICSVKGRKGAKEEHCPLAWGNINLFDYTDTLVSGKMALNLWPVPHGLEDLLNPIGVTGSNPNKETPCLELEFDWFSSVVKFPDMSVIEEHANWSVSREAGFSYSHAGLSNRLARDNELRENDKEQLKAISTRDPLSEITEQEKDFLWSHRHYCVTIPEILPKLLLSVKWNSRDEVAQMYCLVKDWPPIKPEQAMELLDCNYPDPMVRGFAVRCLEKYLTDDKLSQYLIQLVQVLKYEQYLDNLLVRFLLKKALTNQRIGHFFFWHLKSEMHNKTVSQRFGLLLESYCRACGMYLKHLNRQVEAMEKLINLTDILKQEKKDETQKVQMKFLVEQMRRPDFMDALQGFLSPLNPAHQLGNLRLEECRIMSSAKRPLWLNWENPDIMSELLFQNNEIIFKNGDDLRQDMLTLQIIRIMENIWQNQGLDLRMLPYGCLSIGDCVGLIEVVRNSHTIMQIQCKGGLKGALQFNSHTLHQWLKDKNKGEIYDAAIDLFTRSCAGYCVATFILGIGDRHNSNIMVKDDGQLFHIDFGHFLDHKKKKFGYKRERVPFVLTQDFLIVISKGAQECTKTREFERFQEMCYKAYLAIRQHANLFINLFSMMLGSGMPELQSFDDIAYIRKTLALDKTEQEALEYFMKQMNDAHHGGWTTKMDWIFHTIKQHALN
T1 sequence (P27986 whole entry partner): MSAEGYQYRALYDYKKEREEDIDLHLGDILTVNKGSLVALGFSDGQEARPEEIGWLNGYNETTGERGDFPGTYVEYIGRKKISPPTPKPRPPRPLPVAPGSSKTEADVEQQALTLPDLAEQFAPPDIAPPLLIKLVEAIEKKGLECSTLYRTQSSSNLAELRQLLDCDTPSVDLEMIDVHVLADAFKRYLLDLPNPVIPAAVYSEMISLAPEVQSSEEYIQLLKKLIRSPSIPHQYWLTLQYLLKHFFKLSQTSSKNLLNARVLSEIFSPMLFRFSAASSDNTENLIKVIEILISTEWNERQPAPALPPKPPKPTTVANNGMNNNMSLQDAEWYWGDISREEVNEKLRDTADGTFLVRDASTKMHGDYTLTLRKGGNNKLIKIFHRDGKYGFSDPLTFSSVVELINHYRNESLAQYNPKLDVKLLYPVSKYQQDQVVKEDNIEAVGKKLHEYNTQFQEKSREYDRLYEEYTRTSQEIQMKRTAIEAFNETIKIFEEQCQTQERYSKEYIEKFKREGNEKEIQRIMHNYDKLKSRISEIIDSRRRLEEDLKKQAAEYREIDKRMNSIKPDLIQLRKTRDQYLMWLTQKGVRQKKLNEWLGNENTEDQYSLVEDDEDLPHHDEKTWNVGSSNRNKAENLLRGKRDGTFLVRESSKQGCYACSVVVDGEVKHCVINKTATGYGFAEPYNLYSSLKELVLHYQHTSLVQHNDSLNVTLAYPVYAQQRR

With `C=CC(=O)NCC(=O)N1CCN(Cc2cc3c(N4CCOCC4)nc(-c4cnc(NC(=O)OC)cc4C(F)(F)F)nn3c2)CC1` [Compound I, methyl (5-(6-((4-(acryloylglycyl)piperazin-1-yl)methyl)-4-morpholinopyrrolo[2,1-f][1,2,4]triazin-2-yl)-4-(trifluoromethyl)pyridin-2-yl)carbamate] the inhibition at 0.0046 µM [1] was -1.36%, the inhibition at 0.0137 µM [1] was 3.14% and the inhibition at 0.0412 µM [1] was 9.47%. It also gave an inhibition at 0.1235 µM [1] of 17.1%, an inhibition at 0.3704 µM [1] of 29.4% and an inhibition at 1.1111 µM [1] of 50.5%. The inhibition at 3.3333 µM [1] was 65.8%, the inhibition at 10 µM [1] was 71.3% and the inhibition at 0.0046 µM [2] was -3.3%. It also gave an inhibition at 0.0137 µM [2] of -0.64%, an inhibition at 0.0412 µM [2] of 8.04% and an inhibition at 0.1235 µM [2] of 9.71%. It also gave an inhibition at 0.3704 µM [2] of 15.9%, an inhibition at 1.1111 µM [2] of 19% and an inhibition at 3.3333 µM [2] of 21.8%. The inhibition at 10 µM [2] was 27.5%, the IC50 ([3]; MIA PaCa-2, 72 h, read-out: Absolute IC50 (μM)) was > 10 µM and the inhibition at 0.0046 µM [3, 8] was -5.76%. It also gave an inhibition at 0.0137 µM [3, 8] of -10.3%, an inhibition at 0.0412 µM [3, 8] of -8.58% and an inhibition at 0.1235 µM [3, 8] of -9.5%. For the same compound, the inhibition at 0.3704 µM [3, 8] was -5.32%, the inhibition at 1.1111 µM [3, 8] was 1.46% and the inhibition at 3.3333 µM [3, 8] was 13.9%. For the same compound, the inhibition at 10 µM [3, 8] was 30.6%, the “inhibitory effect on cell proliferation (in words)” value [4] was “substantial inhibitory effect” and the “inhibition of the PI3K target” value [5] was “greater than 80%”. For the same compound, the inhibition at 0.0046 µM [6] was 4.57%, the inhibition at 0.0137 µM [6] was 2.64% and the inhibition at 0.0412 µM [6] was 6.01%. The inhibition at 0.1235 µM [6] was 15.7%, the inhibition at 0.3704 µM [6] was 21.8% and the inhibition at 1.1111 µM [6] was 29.5%. It also gave an inhibition at 3.3333 µM [6] of 40.4%, an inhibition at 10 µM [6] of 48.4% and an inhibition at 0.0046 µM [7] of -5.05%. It also gave an inhibition at 0.0137 µM [7] of -5.07%, an inhibition at 0.0412 µM [7] of -7.94% and an inhibition at 0.1235 µM [7] of -4.04%. The inhibition at 0.3704 µM [7] was 0.18%, the inhibition at 1.1111 µM [7] was 9.37% and the inhibition at 3.3333 µM [7] was 27.4%. For the same compound, the inhibition at 10 µM [7] was 44.8%.

— patent US20250213581A1, “COMBINATION THERAPY OF A PI3K INHIBITOR AND KRAS INHIBITOR AND METHODS OF USE THEREOF” (Totus Medicines Inc., priority 2022, published 2025)
